Measurements taken from US8372854B2, “Pyrrolo[2,3-D]pyrimidine compounds” (Pfizer Inc., priority 2009, dated 2013).

Tests used:
Assay type in all cases: biochemical
JAK3 = biological target: T1, JAK3 (Homo sapiens, UniProt P52333); experiment: JAK enzymatic assay (peptide mobility shift), JAK3; conditions: recombinant JAK3 1 nM, ATP 4 μM, 1 μM JAKtide peptide, 90 minutes
T1 construct: purchased Invitrogen Corporation, Madison, Wis; PV3855
T1 sequence (P52333 1-1124): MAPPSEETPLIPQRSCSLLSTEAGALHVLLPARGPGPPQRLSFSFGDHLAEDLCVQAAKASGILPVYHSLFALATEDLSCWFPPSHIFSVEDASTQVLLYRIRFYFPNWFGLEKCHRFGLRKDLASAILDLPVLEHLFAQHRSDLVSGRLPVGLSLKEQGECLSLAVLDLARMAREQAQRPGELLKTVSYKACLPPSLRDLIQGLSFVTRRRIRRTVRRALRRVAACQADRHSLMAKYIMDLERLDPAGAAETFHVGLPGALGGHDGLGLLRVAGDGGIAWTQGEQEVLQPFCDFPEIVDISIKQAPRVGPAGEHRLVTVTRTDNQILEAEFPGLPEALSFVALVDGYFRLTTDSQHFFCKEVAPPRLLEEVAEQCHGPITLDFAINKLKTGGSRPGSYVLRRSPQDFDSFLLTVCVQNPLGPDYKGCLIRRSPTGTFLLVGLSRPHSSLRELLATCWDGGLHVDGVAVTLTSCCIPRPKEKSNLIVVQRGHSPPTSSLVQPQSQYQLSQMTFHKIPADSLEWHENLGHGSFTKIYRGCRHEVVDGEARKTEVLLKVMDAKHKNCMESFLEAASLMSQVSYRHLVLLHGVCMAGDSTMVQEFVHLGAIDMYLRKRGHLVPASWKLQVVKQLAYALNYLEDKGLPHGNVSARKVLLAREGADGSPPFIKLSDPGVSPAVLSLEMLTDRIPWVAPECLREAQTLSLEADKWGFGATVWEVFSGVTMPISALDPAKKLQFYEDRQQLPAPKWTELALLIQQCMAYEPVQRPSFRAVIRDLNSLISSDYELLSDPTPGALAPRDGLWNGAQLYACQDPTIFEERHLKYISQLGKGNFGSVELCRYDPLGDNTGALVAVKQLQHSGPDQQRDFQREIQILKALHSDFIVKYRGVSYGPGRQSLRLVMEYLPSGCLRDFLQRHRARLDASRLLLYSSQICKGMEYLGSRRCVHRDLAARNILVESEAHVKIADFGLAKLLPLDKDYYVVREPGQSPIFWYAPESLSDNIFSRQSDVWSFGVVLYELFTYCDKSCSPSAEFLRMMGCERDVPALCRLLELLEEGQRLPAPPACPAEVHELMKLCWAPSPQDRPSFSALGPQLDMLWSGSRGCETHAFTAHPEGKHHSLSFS

JAK2 = biological target: T2, JAK2 (Homo sapiens, UniProt O60674); experiment: JAK enzymatic assay (peptide mobility shift), JAK2; conditions: recombinant JAK2 2 nM, ATP 4 μM, 1 μM JAKtide peptide, 150 minutes
T2 construct: purchased Invitrogen Corporation, Madison, Wis; PV4210
How it was run: (§1)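 Caliper mobility-shift assay of peptide phosphorylation (1 μM peptide) in pH 7.4 HEPES with MgCl2, BSA, Tween-20 and 2% DMSO. JAK1 used 20 nM enzyme, 40 μM ATP, IRS-1 peptide, 240 min; JAK2 used 2 nM, 4 μM ATP, JAKtide, 150 min; JAK3 used 1 nM, 4 μM ATP, JAKtide, 90 min. IC50s came from 11-point 4-parameter fits.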

JAK1 = biological target: T3, JAK1 (Homo sapiens, UniProt P23458); experiment: JAK enzymatic assay (peptide mobility shift), JAK1; conditions: recombinant JAK1 20 nM, ATP 40 μM, 1 μM IRS-1 peptide, 240 minutes
T3 construct: purchased Invitrogen Corporation, Madison, Wis; PV4775
How it was run: as §1

T2 sequence (O60674 whole entry): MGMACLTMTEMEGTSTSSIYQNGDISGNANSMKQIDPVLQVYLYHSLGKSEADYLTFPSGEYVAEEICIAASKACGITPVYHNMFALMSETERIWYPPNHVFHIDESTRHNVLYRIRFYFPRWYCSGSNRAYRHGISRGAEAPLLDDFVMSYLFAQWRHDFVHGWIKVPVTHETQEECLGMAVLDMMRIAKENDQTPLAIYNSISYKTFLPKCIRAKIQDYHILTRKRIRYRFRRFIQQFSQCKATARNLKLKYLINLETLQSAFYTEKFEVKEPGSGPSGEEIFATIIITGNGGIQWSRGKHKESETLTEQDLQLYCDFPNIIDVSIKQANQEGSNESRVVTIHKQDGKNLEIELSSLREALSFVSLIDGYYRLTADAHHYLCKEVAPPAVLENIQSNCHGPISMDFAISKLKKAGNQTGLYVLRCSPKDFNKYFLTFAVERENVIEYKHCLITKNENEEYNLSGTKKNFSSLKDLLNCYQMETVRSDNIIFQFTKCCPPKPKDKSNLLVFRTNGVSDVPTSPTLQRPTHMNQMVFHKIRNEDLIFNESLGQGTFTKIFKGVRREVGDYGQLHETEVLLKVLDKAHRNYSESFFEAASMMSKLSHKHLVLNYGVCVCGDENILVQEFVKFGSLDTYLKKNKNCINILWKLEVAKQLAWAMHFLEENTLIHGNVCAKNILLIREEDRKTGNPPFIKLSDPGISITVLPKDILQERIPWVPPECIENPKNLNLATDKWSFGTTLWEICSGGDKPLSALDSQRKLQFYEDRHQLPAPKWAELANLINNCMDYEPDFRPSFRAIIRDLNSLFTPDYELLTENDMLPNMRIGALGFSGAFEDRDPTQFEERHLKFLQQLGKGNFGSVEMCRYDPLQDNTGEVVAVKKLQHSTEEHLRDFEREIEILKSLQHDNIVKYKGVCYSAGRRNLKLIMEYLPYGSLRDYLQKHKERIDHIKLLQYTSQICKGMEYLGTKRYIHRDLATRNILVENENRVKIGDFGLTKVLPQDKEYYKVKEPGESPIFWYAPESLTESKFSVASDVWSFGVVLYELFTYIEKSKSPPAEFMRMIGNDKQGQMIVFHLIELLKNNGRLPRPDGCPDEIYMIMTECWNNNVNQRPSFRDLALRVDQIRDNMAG
T3 sequence (P23458 whole entry): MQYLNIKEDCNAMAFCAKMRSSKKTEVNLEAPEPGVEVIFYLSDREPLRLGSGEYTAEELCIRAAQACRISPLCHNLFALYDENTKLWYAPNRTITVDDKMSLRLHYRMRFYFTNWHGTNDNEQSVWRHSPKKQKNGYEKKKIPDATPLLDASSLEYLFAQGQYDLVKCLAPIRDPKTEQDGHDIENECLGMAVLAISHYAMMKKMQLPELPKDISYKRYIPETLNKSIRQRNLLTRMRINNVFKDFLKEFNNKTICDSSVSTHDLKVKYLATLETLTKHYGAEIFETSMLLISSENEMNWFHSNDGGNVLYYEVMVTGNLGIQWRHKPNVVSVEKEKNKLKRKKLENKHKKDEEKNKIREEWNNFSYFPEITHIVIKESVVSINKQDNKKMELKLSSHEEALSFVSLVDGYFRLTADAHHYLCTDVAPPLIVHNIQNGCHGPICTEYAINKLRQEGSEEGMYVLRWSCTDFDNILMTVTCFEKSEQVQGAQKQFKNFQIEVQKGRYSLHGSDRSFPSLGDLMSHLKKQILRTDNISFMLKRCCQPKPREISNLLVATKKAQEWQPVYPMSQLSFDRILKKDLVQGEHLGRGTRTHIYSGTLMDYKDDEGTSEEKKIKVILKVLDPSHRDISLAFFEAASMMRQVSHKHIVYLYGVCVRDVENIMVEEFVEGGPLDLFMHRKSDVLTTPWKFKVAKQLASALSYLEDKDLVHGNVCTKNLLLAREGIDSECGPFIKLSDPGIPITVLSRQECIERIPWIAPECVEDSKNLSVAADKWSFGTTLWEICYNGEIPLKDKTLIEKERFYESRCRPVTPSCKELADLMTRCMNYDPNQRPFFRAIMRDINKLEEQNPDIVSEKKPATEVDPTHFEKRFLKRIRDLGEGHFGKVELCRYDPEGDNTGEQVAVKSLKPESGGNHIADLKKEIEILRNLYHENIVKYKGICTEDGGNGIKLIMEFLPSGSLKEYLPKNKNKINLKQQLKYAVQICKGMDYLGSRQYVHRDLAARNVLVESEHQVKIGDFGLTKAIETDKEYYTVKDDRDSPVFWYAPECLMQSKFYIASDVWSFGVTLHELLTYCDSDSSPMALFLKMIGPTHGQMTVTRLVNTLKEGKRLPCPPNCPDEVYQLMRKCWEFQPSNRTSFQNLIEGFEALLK

| IC50 (JAK3) [nM] | IC50 (JAK2) [nM] | IC50 (JAK1) [nM] | SMILES |
| --- | --- | --- | --- |
| 240 | 30.6 | 9.79 | CN(c1ncnc2[nH]ccc12)[C@H]1CC[C@H](CS(=O)(=O)NCC(O)c2ccc(F)c(F)c2)CC1 (stereo partly drawn) [Example 39, N-[2-(3,4-difluorophenyl)-2-hydroxyethyl]-1-{trans-4-[methyl(7H-pyrrolo[2,3-d]pyrimidin-4-yl)amino]-cyclohexyl}-methanesulfonamide] |
| 514 | 51 | 16.7 | CN(Cc1cccc(N)n1)S(=O)(=O)C[C@H]1CC[C@H](N(C)c2ncnc3[nH]ccc23)CC1 [Example 29, N-[(6-aminopyridin-2-yl)methyl]-N-methyl-1-{trans-4-[methyl(7H-pyrrolo[2,3-d]pyrimidin-4-yl)amino]cyclohexyl}-methanesulfonamide] |
| 517 | 53.2 | 14.9 | CN(Cc1cnccn1)S(=O)(=O)C[C@H]1CC[C@H](N(C)c2ncnc3[nH]ccc23)CC1 [Example 43, N-methyl-1-{trans-4-[methyl(7H-pyrrolo[2,3-d]-pyrimidin-4-yl)amino]-cyclohexyl}-N-(pyrazin-2-ylmethyl)-methanesulfonamide] |
| 145 | 55.4 | 9.13 | CC(C)c1ccc(CCNS(=O)(=O)C[C@H]2CC[C@H](N(C)c3ncnc4[nH]ccc34)CC2)c(F)c1 [Example 38, N-[2-(2-fluoro-4-isopropylphenyl)ethyl]-1-{trans-4-[methyl(7H-pyrrolo[2,3-d]pyrimidin-4-yl)amino]cyclohexyl}-methanesulfonamide] |
| 212 | 33.3 | 8.73 | CN(c1ncnc2[nH]ccc12)[C@H]1CC[C@H](CS(=O)(=O)N[C@H]2CC[C@H](C(C)(C)O)CC2)CC1 [Example 37, N-[trans-4-(1-hydroxy-1-methylethyl)cyclohexyl]-1-{trans-4-[methyl(7H-pyrrolo[2,3-d]pyrimidin-4-yl)amino]cyclohexyl}-methanesulfonamide] |
| 121 | 22.2 | 8.72 | COc1ccc(NS(=O)(=O)C[C@H]2CC[C@H](N(C)c3ncnc4[nH]ccc34)CC2)cn1 [Example 28, N-(6-methoxypyridin-3-yl)-1-{trans-4-[methyl(7H-pyrrolo[2,3-d]pyrimidin-4-yl)amino]cyclohexyl}methane-sulfonamide] |
| 140 | 52.4 | 10.3 | CN(c1ncnc2[nH]ccc12)[C@H]1CC[C@H](CS(=O)(=O)Nc2ccc(C#N)cc2)CC1 [Example 21, N-(4-cyanophenyl)-1-{trans-4-[methyl(7H-pyrrolo[2,3-d]pyrimidin-4-yl)amino]cyclohexyl}-methanesulfonamide] |
| 54.3 | 7.47 | 2.19 | CN(c1ncnc2[nH]ccc12)[C@H]1CC[C@H](CS(=O)(=O)Nc2ccc3c(c2)OCCCO3)CC1 [Example 27, N-(3,4-dihydro-2H-1,5-benzodioxepin-7-yl)-1-{trans-4-[methyl(7H-pyrrolo[2,3-d]-pyrimidin-4-yl)amino]-cyclo-hexyl}methanesulfonamide] |
| 208 | 29.8 | 10.7 | COc1ccccc1CCCNS(=O)(=O)C[C@H]1CC[C@H](N(C)c2ncnc3[nH]ccc23)CC1 [Example 40, N-[3-(2-methoxyphenyl)-propyl]-1-{trans-4-[methyl(7H-pyrrolo[2,3-d]-pyrimidin-4-yl)amino]-cyclohexyl}-methanesulfonamide] |
